For assay [1], the target named is Histamine H3 receptor (Rattus norvegicus, UniProt Q9QYN8). As to the kind of experiment: Binding potency was determined by displacement of [3H]N-alpha-methyl histamine from histamine H3 receptor of rat cortical membranes. (In a radioligand displacement assay an active substance lowers the binding of a labelled ligand.)
Assay [2] concerns the target Histamine H3 receptor (Homo sapiens, UniProt Q9Y5N1). As to the kind of experiment: Binding potency was determined by displacement of [3H]N-alpha-methyl histamine from cloned human histamine H3 receptor expressed in C6 cells.

What is called Ki is the equilibrium dissociation constant of an inhibitor or competing ligand from its target. A low value points to tighter binding.

SMILES strings stand for the structures.

Sequence of Histamine H3 receptor (Rattus norvegicus, UniProt Q9QYN8) (Q9QYN8 whole entry): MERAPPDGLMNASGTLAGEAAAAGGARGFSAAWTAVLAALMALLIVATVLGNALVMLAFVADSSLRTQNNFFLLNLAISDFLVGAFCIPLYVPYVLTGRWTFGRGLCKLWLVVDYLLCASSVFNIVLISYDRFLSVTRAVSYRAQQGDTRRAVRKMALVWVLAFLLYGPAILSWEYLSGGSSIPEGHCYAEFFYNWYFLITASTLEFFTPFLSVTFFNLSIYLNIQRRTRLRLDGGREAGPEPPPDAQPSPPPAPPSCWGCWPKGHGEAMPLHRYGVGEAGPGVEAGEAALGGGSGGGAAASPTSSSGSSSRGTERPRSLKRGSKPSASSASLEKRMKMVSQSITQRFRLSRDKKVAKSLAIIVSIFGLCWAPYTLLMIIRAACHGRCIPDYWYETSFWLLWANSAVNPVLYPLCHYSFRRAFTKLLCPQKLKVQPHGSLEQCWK
Sequence of Histamine H3 receptor (Homo sapiens, UniProt Q9Y5N1) (Q9Y5N1 whole entry): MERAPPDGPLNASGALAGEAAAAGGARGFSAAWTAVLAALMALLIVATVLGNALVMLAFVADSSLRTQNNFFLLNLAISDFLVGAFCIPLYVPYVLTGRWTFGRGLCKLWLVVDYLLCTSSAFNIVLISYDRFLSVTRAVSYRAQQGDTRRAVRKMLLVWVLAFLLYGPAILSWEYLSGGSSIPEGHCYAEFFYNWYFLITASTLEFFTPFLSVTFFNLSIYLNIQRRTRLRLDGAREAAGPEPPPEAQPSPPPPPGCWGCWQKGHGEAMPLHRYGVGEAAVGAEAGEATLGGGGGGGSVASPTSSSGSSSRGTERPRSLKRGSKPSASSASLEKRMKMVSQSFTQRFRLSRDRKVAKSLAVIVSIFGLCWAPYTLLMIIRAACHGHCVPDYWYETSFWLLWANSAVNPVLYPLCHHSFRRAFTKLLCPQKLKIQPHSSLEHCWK

In turn, `CC1CCCCN1CCc1cc2cc(-c3ccc(C(=O)N4CCOCC4)cc3)ccc2o1` (configuration not stated) [(4-{2-[2-(2-Methyl-piperidin-1-yl)-ethyl]-benzofuran-5-yl}-phenyl)-morpholin-4-yl-methanone] displayed an inhibition constant (Ki) at Histamine H3 receptor [1] of 13 nM. That is a double-digit nanomolar value.

In the case of `O=C(c1ccc(-c2ccc3oc(CCN4CCCCC4)cc3c2)nc1)N1CCOCC1` [Morpholin-4-yl-{6-[2-(2-piperidin-1-yl-ethyl)-benzofuran-5-yl]-pyridin-3-yl}-methanone], the Ki at Histamine H3 receptor [2] came to 13 nM.
